What was measured:
pigs = assay: conception rate of pigs fertilized by boars administered 25-hydroxy vitamin D3; type: in vivo, pig; details: pigs fertilized by boars that were administered 25-hydroxy vitamin D3
boars = assay: administration of 25-hydroxy vitamin D3 to boars: quality of semen; type: in vivo, pig; details: administered to boars

## C=C1CC[C@H](O)C/C1=C/C=C1\CCC[C@]2(C)[C@@H]([C@H](C)CCCC(C)(C)O)CC[C@@H]12 [25-hydroxy vitamin D3]
pigs
  conception rate in pigs: increases the conception rate in pigs
boars
  quality of boar semen: improves the quality of boar semen

Reference: patent US20100227840A1, “USE OF 25-HYDROXY VITAMIN D3 TO IMPROVE MALE ANIMAL FERTILITY” (priority 2005, published 2010)
